From US20080027117A1, “Antifungal Azole Derivatives Having a Fluorovinyl Moiety and Process for the Preparation Thereof” (KOREA RESERACH INSTIITUTE OF CHEMICAL TECHNOLOGY, priority 2003, published 2008)
pIC50: −log10 of the molar value. In brackets after ≈: the same amount, converted by molar mass. Where two headings read alike, the source gives them in different places.

Key:
[1] = target: T1, CYP 1A2 (Homo sapiens, UniProt P05177); assay: Hepatic toxicity: Phenacetin O-deethylase in human hepatic microsomes
T1 sequence (P05177 1-516): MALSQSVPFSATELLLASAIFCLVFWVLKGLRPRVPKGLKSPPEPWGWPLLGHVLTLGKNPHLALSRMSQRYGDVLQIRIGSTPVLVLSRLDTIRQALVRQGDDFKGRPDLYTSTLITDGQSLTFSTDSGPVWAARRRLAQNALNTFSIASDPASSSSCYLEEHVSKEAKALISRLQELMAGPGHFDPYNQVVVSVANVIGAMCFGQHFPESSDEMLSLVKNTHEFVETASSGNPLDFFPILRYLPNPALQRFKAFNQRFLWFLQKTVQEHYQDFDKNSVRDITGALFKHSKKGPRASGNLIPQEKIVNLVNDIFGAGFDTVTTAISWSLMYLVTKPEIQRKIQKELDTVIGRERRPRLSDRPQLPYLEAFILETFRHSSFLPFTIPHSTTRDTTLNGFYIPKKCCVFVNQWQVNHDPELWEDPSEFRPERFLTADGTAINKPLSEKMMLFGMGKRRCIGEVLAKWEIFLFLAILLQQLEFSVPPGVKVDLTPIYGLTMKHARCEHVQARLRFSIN
Protocol: (§1) After incubating at 37° C. for 20 min, 200 μl of each resulting solution was mixed with 100 μl of acetonitrile, and analyzed with LC-MS (LC column: Luna2 C8, 2×100 mm, flow velocity: 0.2 ml/min, MS system: Quattro LC (micromass)) using a 5% MeOH aqueous solution containing 0.1% formic acid as an eluent.

[2] = target: CYP 2D6 (Homo sapiens, UniProt P10635); assay: Hepatic toxicity: Bufuralol 1′-hydroxylase in human hepatic microsomes
Protocol: as §1

[3] = target: T2, CYP 2C8 (Homo sapiens, UniProt P10632); assay: Hepatic toxicity: Paclitaxel 6 α-hydroxylase in human hepatic microsomes
T2 sequence (P10632 1-490): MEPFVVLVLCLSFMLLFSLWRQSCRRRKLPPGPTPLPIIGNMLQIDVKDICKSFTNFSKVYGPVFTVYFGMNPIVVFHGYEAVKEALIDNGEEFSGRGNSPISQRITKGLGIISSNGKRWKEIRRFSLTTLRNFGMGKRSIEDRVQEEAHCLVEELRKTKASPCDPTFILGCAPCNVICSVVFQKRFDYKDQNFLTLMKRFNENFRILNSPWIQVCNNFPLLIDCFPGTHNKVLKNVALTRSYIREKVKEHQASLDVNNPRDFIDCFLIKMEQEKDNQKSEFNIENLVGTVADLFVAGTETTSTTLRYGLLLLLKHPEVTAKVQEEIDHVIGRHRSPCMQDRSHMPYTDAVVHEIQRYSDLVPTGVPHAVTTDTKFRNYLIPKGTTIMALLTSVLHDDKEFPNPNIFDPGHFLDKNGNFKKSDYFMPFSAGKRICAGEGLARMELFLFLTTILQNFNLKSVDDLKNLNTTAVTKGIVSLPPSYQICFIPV
Protocol: as §1

[4] = target: CYP 2C19 (Homo sapiens, UniProt P33261); assay: Hepatic toxicity: Mephenytoin 4-hydroxylase in human hepatic microsomes
Protocol: as §1

[5] = target: T3, CYP 2A6 (Homo sapiens, UniProt P11509); assay: Hepatic toxicity: Coumarin 7-hydroxylase in human hepatic microsomes
T3 sequence (P11509 1-494): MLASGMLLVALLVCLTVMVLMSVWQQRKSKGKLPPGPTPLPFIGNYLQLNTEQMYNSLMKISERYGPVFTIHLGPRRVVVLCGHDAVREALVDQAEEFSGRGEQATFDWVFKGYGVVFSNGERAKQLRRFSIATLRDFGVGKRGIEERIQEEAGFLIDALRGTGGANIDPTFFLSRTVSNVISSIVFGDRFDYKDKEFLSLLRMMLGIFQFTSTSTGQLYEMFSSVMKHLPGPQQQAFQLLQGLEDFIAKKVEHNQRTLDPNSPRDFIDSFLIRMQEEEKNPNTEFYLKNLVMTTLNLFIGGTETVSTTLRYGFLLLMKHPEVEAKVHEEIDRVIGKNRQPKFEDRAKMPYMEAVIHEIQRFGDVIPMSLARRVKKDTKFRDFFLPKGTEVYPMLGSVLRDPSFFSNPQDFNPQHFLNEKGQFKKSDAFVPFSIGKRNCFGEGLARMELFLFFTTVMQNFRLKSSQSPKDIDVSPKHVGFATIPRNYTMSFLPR
Protocol: as §1

[6] = target: CYP 3A4 (Homo sapiens, UniProt P08684); assay: Hepatic toxicity: Midazolam 1′-hydroxylase in human hepatic microsomes; conditions: read-out: IC50 Midazolam 1′-hydroxylase CYP 3A4; human hepatic microsomes 0.5 mg/ml, 37° C., 20 min, LC-MS
Protocol: as §1

[7] = target: CYP 2C9 (Homo sapiens, UniProt P11712); assay: Hepatic toxicity: Diclofenac 4′-hydroxylase in human hepatic microsomes
Protocol: as §1

[8] = test system: A. fumigatus ATCC 16424; assay: In vitro antifungal activity, microbroth dilution (MIC80); type: cell-based; conditions: lowest concentration reducing growth by 80% relative to untreated control; RPMI-1640, 35° C.
Protocol: (§2) Sabourad Dextrose Agar (Difco), YM Agar or Potato Dextrose Agar was used as a culture medium according to ATCC information, and RPMI-1640 broth (Sigma. Co. w/L-glutamine, wo/NaHCO3)(0.165 M MOPS, pH 7.0), as a dilution medium. […] In the case of yeasts, the turbidity (light absorbance) of the suspension was adjusted to 0.108 at 530 nm, and then the suspension was diluted 1000-fold with sterile RPMI-1640 liquid medium to 1.0103˜5.0103 CFU/ml. The turbidity of fungi was adjusted to 80˜82% and the suspension was diluted 50-fold to 0.4102˜0.5104 CFU/ml. […] 0.1 ml portions of the test solutions were added to the wells of a sterile 96 well plate. Then, 0.1 ml portions of each test strain solutions were added successively to the wells and the plate was incubated at 35° C. for […]. Minimal inhibitory concentration (MIC80) of each compound was determined as the lowest concentration of the test compounds required to reduce growth by 80% relative to a control strain not treated.

[9] = test system: Candida albicans ATCC 10231; assay: as above; type: cell-based; conditions: lowest concentration reducing growth by 80% relative to untreated control; RPMI-1640, 35° C.
Protocol: as §2

[10] = test system: C. neoformans ATCC 36556; assay: as above; type: cell-based; conditions: lowest concentration reducing growth by 80% relative to untreated control; RPMI-1640, 35° C.
Protocol: as §2

[11] = test system: Candida albicans MYA-573; assay: as above; type: cell-based; conditions: lowest concentration reducing growth by 80% relative to untreated control; RPMI-1640, 35° C.
Protocol: as §2

[12] = test system: Candida krusei ATCC 6258; assay: as above; type: cell-based; conditions: lowest concentration reducing growth by 80% relative to untreated control; RPMI-1640, 35° C.
Protocol: as §2

[13] = test system: ICR mice; assay: Toxicity of oral administration; type: in vivo; conditions: oral administration in DMSO, observed over 2 weeks
Protocol: Specific pathogen-free ICR mice, 2 females and 2 males were used for the each testing. The compound of Example 40 of the present invention was dissolved in DMSO and the solution was orally administered in doses of 62, 125, 250, 500, 1,000 and 2,000 mg of the compound/kg of the body weight (10 ml of the sample volume/kg of the body weight).

Chain of CYP 3A4 (P08684 whole entry): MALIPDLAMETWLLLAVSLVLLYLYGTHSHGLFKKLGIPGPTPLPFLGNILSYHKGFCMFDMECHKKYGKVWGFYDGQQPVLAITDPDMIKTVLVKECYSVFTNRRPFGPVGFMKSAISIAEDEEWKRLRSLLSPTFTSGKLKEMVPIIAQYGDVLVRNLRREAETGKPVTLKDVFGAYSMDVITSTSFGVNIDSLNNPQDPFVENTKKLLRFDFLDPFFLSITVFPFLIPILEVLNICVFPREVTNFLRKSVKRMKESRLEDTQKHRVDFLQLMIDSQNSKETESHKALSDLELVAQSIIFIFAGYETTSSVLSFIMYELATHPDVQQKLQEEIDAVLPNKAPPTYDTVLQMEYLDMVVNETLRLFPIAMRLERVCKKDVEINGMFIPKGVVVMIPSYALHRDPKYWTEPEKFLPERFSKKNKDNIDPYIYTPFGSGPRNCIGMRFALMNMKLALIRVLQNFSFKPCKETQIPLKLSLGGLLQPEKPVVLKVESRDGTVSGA
Chain of CYP 2C19 (P33261 whole entry): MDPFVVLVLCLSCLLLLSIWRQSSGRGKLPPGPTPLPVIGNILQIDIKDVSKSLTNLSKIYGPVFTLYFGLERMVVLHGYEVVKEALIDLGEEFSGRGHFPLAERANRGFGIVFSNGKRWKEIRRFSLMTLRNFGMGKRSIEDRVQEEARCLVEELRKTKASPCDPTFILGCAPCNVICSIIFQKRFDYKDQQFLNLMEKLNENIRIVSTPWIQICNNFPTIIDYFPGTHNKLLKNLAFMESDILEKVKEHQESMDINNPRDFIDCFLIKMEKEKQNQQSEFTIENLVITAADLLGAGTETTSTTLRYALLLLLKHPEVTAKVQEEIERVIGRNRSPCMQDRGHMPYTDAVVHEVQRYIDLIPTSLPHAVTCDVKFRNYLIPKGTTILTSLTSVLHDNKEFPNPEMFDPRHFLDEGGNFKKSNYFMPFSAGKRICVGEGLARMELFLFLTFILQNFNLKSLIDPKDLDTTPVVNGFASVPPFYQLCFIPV
Chain of CYP 2C9 (P11712 whole entry): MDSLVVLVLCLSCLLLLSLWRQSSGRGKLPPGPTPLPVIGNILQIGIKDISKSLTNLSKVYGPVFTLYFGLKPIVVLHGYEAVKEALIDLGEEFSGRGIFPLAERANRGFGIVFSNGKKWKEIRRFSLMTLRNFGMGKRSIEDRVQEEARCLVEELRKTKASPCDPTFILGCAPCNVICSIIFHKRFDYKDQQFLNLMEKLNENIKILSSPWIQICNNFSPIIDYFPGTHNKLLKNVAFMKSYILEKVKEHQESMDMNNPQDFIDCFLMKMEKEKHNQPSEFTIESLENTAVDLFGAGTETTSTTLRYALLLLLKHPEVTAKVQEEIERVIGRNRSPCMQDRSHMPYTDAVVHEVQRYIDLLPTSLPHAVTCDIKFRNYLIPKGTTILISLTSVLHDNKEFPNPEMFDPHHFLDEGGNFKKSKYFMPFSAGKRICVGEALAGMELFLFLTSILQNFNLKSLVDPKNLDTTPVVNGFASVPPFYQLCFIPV
Chain of CYP 2D6 (P10635 whole entry): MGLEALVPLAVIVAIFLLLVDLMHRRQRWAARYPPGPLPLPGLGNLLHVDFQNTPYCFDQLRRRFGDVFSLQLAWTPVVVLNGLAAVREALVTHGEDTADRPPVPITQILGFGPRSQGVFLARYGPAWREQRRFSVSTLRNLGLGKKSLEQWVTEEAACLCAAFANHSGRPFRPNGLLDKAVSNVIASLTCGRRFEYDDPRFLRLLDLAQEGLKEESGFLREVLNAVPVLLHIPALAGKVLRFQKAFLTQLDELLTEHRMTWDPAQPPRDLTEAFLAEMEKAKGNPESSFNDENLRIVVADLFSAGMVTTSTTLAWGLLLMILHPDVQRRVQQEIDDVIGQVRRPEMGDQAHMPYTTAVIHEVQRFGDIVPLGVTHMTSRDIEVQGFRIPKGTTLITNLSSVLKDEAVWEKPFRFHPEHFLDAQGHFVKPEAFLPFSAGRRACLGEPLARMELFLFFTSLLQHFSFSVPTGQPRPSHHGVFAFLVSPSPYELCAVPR

Compound | pIC50 ([1]; microsomes) | pIC50 ([2]; microsomes) | pIC50 ([3]; microsomes) | pIC50 ([4]; microsomes) | pIC50 ([5]; microsomes) | pIC50 [6] | pIC50 ([7]; microsomes) | MIC Range (MIC80) A. fumigatus ATCC 16424 [8] | MIC Range (MIC80) Candida albicans ATCC 10231 [9] | MIC Range (MIC80) C. neoformans ATCC 36556 [10] | MIC Range (MIC80) Candida albicans MYA-573 [11] | MIC Range (MIC80) Candida krusei ATCC 6258 [12] | also measured
CC(N1CCN(c2ccc(OC(F)=Cc3cccc(Cl)c3)cc2)C1=O)C(O)(Cn1cncn1)c1ccc(F)cc1F (mixture of isomers) [Example 111] | < 4.00 | < 4.00 | < 4.00 | < 4.00 | < 4.00 | < 4.00 | < 4.00 |  |  |  |  |  | 
CC(n1ccn(-c2ccc(OC(F)=C(c3ccc(Cl)cc3)C(F)(F)F)cc2)c1=O)C(O)(Cn1cncn1)c1ccc(F)cc1F (mixture of isomers) [Example 121] | < 4.00 | < 4.00 | 4.39 | < 4.00 | < 4.00 | < 4.00 | < 4.00 |  |  |  |  |  | 
C[C@@H]1[C@H](O)[C@@H](C)/C=C/C=C/C=C/C=C/C=C/C=C/C=C/[C@H](O[C@@H]2O[C@H](C)[C@@H](O)[C@H](N)[C@@H]2O)C[C@@H]2O[C@](O)(C[C@@H](O)C[C@@H](O)[C@H](O)CC[C@@H](O)C[C@@H](O)CC(=O)O[C@H]1C)C[C@H](O)[C@H]2C(=O)O [Amphotericine B, reference compound] |  |  |  |  |  |  |  | 0.5~1 μg/ml | 0.5~1 μg/ml | 0.25~1 μg/ml | 1~2 μg/ml | 1 µg/mL (≈ 1.08 µM) | 
CC(OC(F)=C(c1ccccc1)C(F)(F)F)C(O)(Cn1cncn1)c1ccc(F)cc1F (stereo not drawn) [Example 5] |  |  |  |  |  |  |  | >16 µg/mL | 2~4 μg/ml | 4 µg/mL (≈ 8.75 µM) | >256 µg/mL | >16 µg/mL | 
COc1cccc(C(=C(F)OC(C)C(O)(Cn2cncn2)c2ccc(F)cc2F)C(F)(F)F)c1 (stereo not drawn) [Example 13] |  |  |  |  |  |  |  | >64 µg/mL | >64 µg/mL | 16 µg/mL (≈ 32.8 µM) |  | >64 µg/mL | 
CC(OC(F)=Cc1ccc(Oc2ccccc2)cc1)C(O)(Cn1cncn1)c1ccc(F)cc1F (stereo not drawn) [Example 15] |  |  |  |  |  |  |  | >256 µg/mL | 1 µg/mL (≈ 2.08 µM) | 0.5 µg/mL (≈ 1.04 µM) | 1 µg/mL (≈ 2.08 µM) | 4 µg/mL (≈ 8.31 µM) | 
COc1ccc(C(=C(F)Oc2ccc(-c3ncn(C(C)C(O)(Cn4cncn4)c4ccc(F)cc4F)n3)cc2)C(F)(F)F)cc1 (stereo not drawn) [Example 32] |  |  |  |  |  | < 4.00 |  |  |  |  |  |  | pIC50 ([1]; read-out: IC50 Phenacetin O-deethylase CYP 1A2, human hepatic microsomes 0.5 mg/ml, 37° C., 20 min, LC-MS): < 4.00; pIC50 ([2]; read-out: IC50 Bufuralol 1′-hydroxylase CYP 2D6, human hepatic microsomes 0.5 mg/ml, 37° C., 20 min, LC-MS): < 4.00; pIC50 ([3]; read-out: IC50 Paclitaxel 6 α-hydroxylase CYP 2C8, human hepatic microsomes 0.5 mg/ml, 37° C., 20 min, LC-MS): 4.70; pIC50 ([4]; read-out: IC50 Mephenytoin 4-hydroxylase CYP 2C19, human hepatic microsomes 0.5 mg/ml, 37° C., 20 min, LC-MS): < 4.00; pIC50 ([5]; read-out: IC50 Coumarin 7-hydroxylase CYP 2A6, human hepatic microsomes 0.5 mg/ml, 37° C., 20 min, LC-MS): < 4.00; pIC50 ([7]; read-out: IC50 Diclofenac 4′-hydroxylase CYP 2C9, human hepatic microsomes 0.5 mg/ml, 37° C., 20 min, LC-MS): < 4.00
CC(n1cnc(-c2ccc(OC(F)=Cc3ccc(Cl)cc3)cc2)n1)C(O)(Cn1cncn1)c1ccc(F)cc1F (stereo not drawn) [Example 40] | < 4.00 | < 4.00 | 4.52 | < 4.00 | < 4.00 | < 4.00 | < 4.00 |  |  |  |  |  | LD50 [13]: approximately 1,750 mg/kg; fetal dose [13]: 1,000˜2,000 mg/kg
OC(Cn1cncn1)(Cn1cncn1)c1ccc(F)cc1F [Fluconazole, reference compound] |  |  |  |  |  |  |  |  | 2~4 μg/ml | 16~32 μg/ml |  | 32~64 μg/ml | pIC50 [1]: < 4.00; pIC50 [2]: 4.35; pIC50 [3]: < 4.00; pIC50 [5]: < 4.00
CC(=O)N1CCN(c2ccc(OCC3COC(Cn4ccnc4)(c4ccc(Cl)cc4Cl)O3)cc2)CC1 (stereo not drawn) [ketoconazole, reference compound] |  |  |  |  |  |  |  |  |  |  |  |  | pIC50 [5]: < 4.00
